Data: publication PMC12649225, “Machine Learning-Identified Potent Antimicrobial Peptides Against Multidrug-Resistant Bacteria and Skin Infections” (Antibiotics, 2025)
≈ marks a conversion by molar mass, not a printed value. Like-named read-outs stand apart in the source and are kept apart here. No end group written: not given here.

Key:
[1] = test system: A. baumannii RUH875 biofilm; assay: Biofilm killing; format: cell-based, Acinetobacter baumannii; details: for Concentration achieving significant biofilm killing of A. baumannii: at any treatment time (2 h, 24 h), tested up to 120 µM; for A. baumannii biofilm killing, 24 h treatment (in words): up to 120 µM
Procedure: (§1) Mid-logarithmic phase cultures of A. baumannii RUH875 or S. aureus JAR060131 were diluted to 1 × 10^8 CFU/mL in RPMI supplemented with 1% glucose. A total of 100 μL of each suspension was added to flat-bottom polystyrene 96-well microplates (Costar) and incubated under static conditions at 37 °C in a humidified atmosphere for 24 h to allow biofilm formation. After 24 h, planktonic bacteria were removed, and wells were carefully washed with 100 μL PBS [60]. […] Control samples were exposed to 100 μL of PBS only.
(§2) Biofilms were treated at 37 °C for either 2 or 24 h. […] Plates were sealed and sonicated for 5 min (Elmasonic, Singen, Germany; 45 kHz) at room temperature to dislodge adherent bacteria. […] Quantitative cultures were performed by plating serial 10-fold dilutions on sheep blood agar, and results were expressed as log10 CFU per well. The lower limit of detection was three CFU. Each condition was tested in six replicates.

[2] = test system: BJ human skin fibroblast cells; assay: LDH leakage assay (membrane integrity); details: lowest concentration causing >30% LDH leakage; BJ fibroblasts; 24 h; DMEM with 2% FBS; 0.05-60 µM
Procedure: (§3) BJ human skin fibroblast cells (ATCC CRL-2522; RRID: CVCL_3653; LGC Standards, Germany (September 2023)) were cultured in Dulbecco’s Modified Eagle Medium (DMEM; Gibco, Waltham, MA, USA) supplemented with 10% (v/v) foetal bovine serum (FBS; Sigma-Aldrich) and 1% (v/v) penicillin/streptomycin (pen/strep; Gibco). Cell suspensions (5 × 10^5 cells/mL) were seeded into 96-well plates (100 μL/well; Thermo Scientific, Waltham, MA, USA) and allowed to adhere for 24 h. Monolayers were then exposed to two-fold serial dilutions of GDST peptides, their RI variants, and reference peptides (final concentrations: 0.05 to 60 µM) in fresh DMEM with 2% (v/v) FBS for 24 h at 37 °C in a humidified atmosphere with 5% CO2.
(§4) Cell viability and membrane integrity were assessed using the water-soluble tetrazolium salt (WST-1; Roche, Basel, Switzerland) assay and the lactate dehydrogenase (LDH; Abcam, Cambridge, UK) assay, respectively, according to manufacturer instructions. Results were expressed as percentages of metabolic activity and LDH leakage relative to untreated control cells and the positive lysis control, respectively. The cytotoxic concentration was defined as the lowest peptide concentration causing <70% metabolic activity and >30% LDH leakage. All experiments were performed in triplicate.

[3] = test system: BJ human skin fibroblast cells; assay: WST-1 metabolic activity assay (cell viability); details: lowest concentration causing <70% metabolic activity (WST-1); BJ fibroblasts; 24 h; DMEM with 2% FBS; 0.05-60 µM
Procedure: as §3, §4

A. baumannii RUH875 [4] = format: cell-based
Procedure: (§5) The bacterial strains used in this study included S. aureus JAR060131 [54] and the MDR ESKAPE pathogens Enterococcus faecium LUH15122, S. aureus LUH14616, Klebsiella pneumoniae LUH15104, A. baumannii RUH875 [55], Pseudomonas aeruginosa LUH15103, Enterobacter cloacae LUH15114, and the colistin-resistant Escherichia coli LUH15117. Before each experiment, bacteria from frozen stocks were cultured at 37 °C for 18–24 h on sheep blood agar plates (BioMérieux, Marcy-l’Étoile, France). All strains were then cultured from colonies either in tryptic soy broth (TSB; Oxoid, Basingstoke, UK) for A. baumannii, S. aureus, and E. faecium, or in brain heart infusion broth (BHI; Oxoid) for K. pneumoniae, P. aeruginosa, E. cloacae, and E. coli at 37 °C with shaking at 120 rpm for 18–24 h. Subsequently, bacteria were cultured to mid-logarithmic phase in the media described above at 37 °C with shaking at 120 rpm for 3 h. Bacteria were then washed twice with PBS and diluted to the required inoculum suspension concentration in Roswell Park Memorial Institute (RPMI)-1640 medium containing 20 mM HEPES and L-glutamine but without sodium bicarbonate (Sigma-Aldrich; hereafter referred to as RPMI), based on optical density at 620 nm. RPMI was selected because it supports bacterial growth without impairing AMP activity.
(§6) Bactericidal activity was assessed as described by de Breij et al.. Briefly, mid-logarithmic phase bacterial cultures were diluted to a final concentration of 1 × 10^7 colony-forming units (CFU)/mL in RPMI. Then, 10 µL was added to a final volume of 100 µL in RPMI (final concentration: 1 × 10^6 CFU/mL). Cultures were exposed to peptides either in RPMI or RPMI supplemented with 50% (v/v) human plasma (hereafter referred to as 50% plasma), obtained from four healthy volunteers after informed consent, frozen after collection, and pooled (Sanquin, Amsterdam, The Netherlands). Assays were performed in duplicate using round-bottom polypropylene microtiter plates (Costar, Arlington, VA, USA) and repeated three times. In the initial screening phase (Table 1, Table 2 and Table S1), peptide solutions of 1, 10, and 100 μM (final concentration) were tested against A. baumannii RUH875 and S. aureus JAR060131 in RPMI and in 50% plasma. After this selection process, two lead candidates, their RI variants, and reference peptides were tested with a final concentration range of 0.12 to 120 µM (two-fold dilutions) in RPMI and in 50% plasma (Table 3). The peptides were also tested against ESKAPE pathogens, with Synthetic Antimicrobial and Antibiofilm Peptide (SAAP)-148 as a reference peptide (Table 4).RPMI or 50% plasma served as no-treatment controls. After 2 and 18 h of incubation at 37 °C with shaking at 120 rpm in a humidified environment, the numbers of viable bacteria were quantified. Bactericidal activity was expressed as the lethal concentration 99.9% (LC99.9), defined as the lowest peptide concentration that killed ≥99.9% of bacteria within 2 h (LC99.9_2h) or 18 h (LC99.9_18h) compared to the initial inoculum.

S. aureus JAR060131 [5] = format: cell-based; details: for LC99.9 S. aureus JAR060131 50% Plasma 2 h / LC99.9 S. aureus JAR060131 RPMI 2 h: JAR060131, 2 h
Procedure: as §5, §6

[6] = test system: S. aureus JAR060131 biofilm; assay: Biofilm killing; format: cell-based, Staphylococcus aureus; details: for S. aureus biofilm killing, 24 h treatment (in words): up to 120 µM; for S. aureus biofilm killing, 24 h treatment (in words) / Concentration giving ≥3-log reduction of S. aureus biofilm CFU within 24 h: 24 h treatment; for Concentration giving ≥3-log reduction of S. aureus biofilm CFU within 24 h: >3 log for BP2 and pexiganan
Procedure: as §1, §2

A. baumannii RUH875 [7] = assay: microbe, parasite or virus in culture; format: cell-based, Acinetobacter baumannii; details: for MIC: Acinetobacter baumannii
Procedure: (§7) The potential for resistance development to GDST-038, GDST-045, and their RI variants was assessed as described by Habets and Brockhurst. Resistance development to the antibiotics rifampicin and ciprofloxacin (both from Sigma-Aldrich) was evaluated for comparison. Briefly, 10 μL of a mid-logarithmic phase culture of A. baumannii RUH875 or S. aureus JAR060131 was added to 90 μL of peptide (final concentrations: 0.23 to 120 μM) or antibiotic (final concentrations: 0.03 to 256 μg/mL) solution in RPMI, in 96-well polypropylene round-bottom plates (Costar). All incubations were performed in quadruplicate. Plates were sealed with breathable seals (Greiner) and incubated at 37 °C with shaking at 120 rpm in a humidified environment for 18 h (S. aureus) or 48 h (A. baumannii).
(§8) The minimum inhibitory concentration (MIC), defined as the lowest concentration that inhibited visible bacterial growth, was then determined. Subsequently, 2 μL from the 0.5-fold MIC condition was transferred to fresh medium containing a concentration series ranging from 0.5- to 8-fold the new MIC. This procedure was repeated over 22 consecutive passages to monitor resistance development.

S. aureus JAR060131 [8] = assay: microbe, parasite or virus in culture; format: cell-based, Staphylococcus aureus; details: Staphylococcus aureus
Procedure: as §7, §8

[9] = RPMI, 18 h, median of three independent experiments

| Compound | Concentration achieving significant biofilm killing of A. baumannii [1] [µM] | Cytotoxicity LDH Leakage >30% [2] [µM] | Cytotoxicity Metabolic Activity <70% [3] [µM] | S. aureus biofilm killing, 24 h treatment (in words) [6] | A. baumannii biofilm killing, 24 h treatment (in words) [1] | LC99.9 A. baumannii RUH875 50% Plasma 2 h (A. baumannii RUH875 [4]; RUH875, 2 h) [µM] | LC99.9 A. baumannii RUH875 RPMI 18 h (A. baumannii RUH875 [4]; RUH875, 18 h) [µM] | LC99.9 S. aureus JAR060131 50% Plasma 2 h (S. aureus JAR060131 [5]) [µM] | LC99.9 S. aureus JAR060131 RPMI 2 h (S. aureus JAR060131 [5]) [µM] | LC99.9 S. aureus JAR060131 RPMI 18 h (S. aureus JAR060131 [5]; JAR060131, 18 h) [µM] | Concentration giving ≥3-log reduction of S. aureus biofilm CFU within 24 h [6] [µM] | other results |
| --- | --- | --- | --- | --- | --- | --- | --- | --- | --- | --- | --- | --- |
| CC[C@H](C)[C@H](NC(=O)[C@H](CCCCN)NC(=O)[C@H](CCC(=O)O)NC(=O)[C@H](CCCCN)NC(=O)[C@H](CO)NC(=O)[C@H](CCCCN)NC(=O)[C@H](CCCNC(=N)N)NC(=O)[C@H](Cc1ccccc1)NC(=O)[C@H](Cc1ccccc1)NC(=O)[C@H](CC(=O)O)NC(=O)CNC(=O)[C@H](CC(C)C)NC(=O)[C@@H](N)CC(C)C)C(=O)NCC(=O)N[C@@H](CCCCN)C(=O)N[C@@H](CCC(=O)O)C(=O)N[C@@H](Cc1ccccc1)C(=O)N[C@@H](CCCCN)C(=O)N[C@@H](CCCNC(=N)N)C(=O)N[C@H](C(=O)N[C@H](C(=O)N[C@@H](CCC(N)=O)C(=O)N[C@@H](CCCNC(=N)N)C(=O)N[C@H](C(=O)N[C@@H](CCCCN)C(=O)N[C@@H](CC(=O)O)C(=O)N[C@@H](Cc1ccccc1)C(=O)N[C@@H](CC(C)C)C(=O)N[C@@H](CCCNC(=N)N)C(=O)N[C@@H](CC(N)=O)C(=O)N[C@@H](CC(C)C)C(=O)N[C@H](C(=O)N1CCC[C@H]1C(=O)N[C@@H](CCCNC(=N)N)C(=O)N[C@H](C(=O)N[C@@H](CCC(=O)O)C(=O)N[C@@H](CO)C(=O)O)[C@@H](C)O)C(C)C)[C@@H](C)CC)C(C)C)[C@@H](C)CC [LL-37, reference compound] | > 120 | 7.5 | 15 | did not exhibit significant biofilm-killing effects | – | – | – | – | – | – | – | LC99.9 A. baumannii RUH875 50% Plasma 2 h (A. baumannii RUH875 [4]; 50% plasma, 2 h, median of three independent experiments): 60 µM; LC99.9 A. baumannii RUH875 50% Plasma 18 h (A. baumannii RUH875 [4]; 50% plasma, 18 h, median of three independent experiments): 60 µM; LC99.9 A. baumannii RUH875 RPMI 2 h (A. baumannii RUH875 [4]; RPMI, 2 h, two-fold dilutions 0.12-120 µM, median of three independent experiments): 1.88 µM; LC99.9 A. baumannii RUH875 RPMI 18 h (A. baumannii RUH875 [4]; [9]): 1.88 µM; LC99.9 S. aureus JAR060131 RPMI 18 h (S. aureus JAR060131 [5]; [9]): > 120 µM |
| O=C(O)c1cn(C2CC2)c2cc(N3CCNCC3)c(F)cc2c1=O [ciprofloxacin, reference compound] | – | – | – | – | – | – | – | – | – | – | – | MIC (A. baumannii RUH875 [7]; RUH875, read-out: MIC A. baumannii after 22 passages): 64 µg/mL (≈ 193 µM); MIC (A. baumannii RUH875 [7]; RUH875, read-out: MIC A. baumannii before passaging): 0.5 µg/mL (≈ 1.51 µM); MIC increase in A. baumannii after 22 passages (A. baumannii RUH875 [7]; relative to first passage): 128 fold |
| CO[C@H]1/C=C/O[C@@]2(C)Oc3c(C)c(O)c4c(O)c(c(/C=N/N5CCN(C)CC5)c(O)c4c3C2=O)NC(=O)/C(C)=C\C=C\[C@H](C)[C@H](O)[C@@H](C)[C@@H](O)[C@@H](C)[C@H](OC(C)=O)[C@@H]1C [rifampicin, reference compound] | – | – | – | – | – | – | – | – | – | – | – | MIC (S. aureus JAR060131 [8]; JAR060131, read-out: MIC S. aureus after 22 passages): 4100 µg/mL (≈ 4980 µM); MIC (S. aureus JAR060131 [8]; JAR060131, read-out: MIC S. aureus before passaging): 0.25 µg/mL (≈ 0.304 µM) |
| GIGKFLKKAKKFGKAFVKILKK-NH2 (C-terminus assumed) [Pexiganan, reference compound] | – | – | – | – | not sustained after 24 h | 0.23 | 0.47 | 7.50 | 0.47 | 0.23 | ≥ 30 | Concentration killing ≥3 log CFU of A. baumannii biofilm within 2 h ([1]; 24 h biofilm, 2 h treatment in PBS, 1.88-120 μM, vs untreated biofilm): ≥ 30 µM |
| GKWKLFKKAFKKFLKILAC [BP2, reference compound] | – | 1.88 | 0.47 | – | complete eradication | – | – | – | – | – | ≥ 30 | Concentration giving complete eradication of S. aureus biofilm within 24 h ([6]; 24 h biofilm, 24 h treatment in PBS): ≥ 60 µM |
| LRAMCIKWWSGKHPK [TC84, reference compound] | > 120 | – | – | did not exhibit significant biofilm-killing effects | – | 3.75 | 3.75 | 7.5 | 7.5 | 7.5 | – | – |
